Compound | melting point [°C]
CCCCN(CC)c1ccc(C(=O)O)cc1 | 137 to 139
Cc1cc(C)c([N+](=O)[O-])c(Cl)n1 | 59 to 61
CCCNc1nnc(S)s1 | 105 to 107
O=C(O)CCCSc1ccccc1 | 66 to 68
CCOc1ccc(C(=O)CC)cc1OCC | 39 to 41
Cc1ccc(F)cc1-c1nc2ccccc2[nH]1 | 223 to 225
N#Cc1ccc(NN)cc1C(F)(F)F | 119 to 121
Nc1ccc(NC(=O)c2ccccc2F)cc1C(F)(F)F | 124 to 126
Cc1ncc(C=O)n1-c1ccc(Br)cc1 | 110 to 112
O=C(O)CC=Cc1ccc(F)cc1 | 111 to 113
NC(=O)Cn1cnc([N+](=O)[O-])c1 | 153 to 155
Nc1ccc(S(=O)(=O)C(F)F)cc1 | 102 to 104
Cc1cc(C=O)c(C)n1Cc1ccco1 | 87 to 89
O=[N+]([O-])c1sccc1Br | 80 to 82
Cn1c(=O)n(CC(=O)O)c2ccccc21 | 202 to 204
CC(N)c1ccc2c(c1)CC(=O)N2C (stereo not drawn) | 101 to 103
NS(=O)(=O)c1ccc(S(=O)(=O)N2CCC(C(=O)O)CC2)cc1 | 190 to 192
CC(C)C(=O)Nc1cc2ccccc2cc1C(=O)O | 203 to 205
O=S(=O)(F)c1ccc(Br)cn1 | 92 to 94
O=C1NC(=O)N(C2CCCCC2)C1=O | 187 to 189
NCC1(O)CCC1 | 64 to 66
COC(=O)c1n[nH]c2ccc(N)cc12 | 181 to 183
O=c1[nH]nnc2c1cnn2-c1ccccc1 | 144 to 146
O=C(O)CCCc1cc(Cl)sc1Cl | 42 to 44
O=C(O)c1cnn(-c2ccc(Cl)cc2Cl)c1 | 246 to 248

Compound | melting point [°C]
O=C(NC1CCOCC1)c1ccc(Cl)nn1 | 152 to 154
Cc1cc(=O)n2c(C)csc2c1C#N | 178 to 180
O=C(O)C(Cn1ccc(C(F)(F)F)n1)NC1CC1 (stereo not drawn) | 175 to 177
O=C(NCC(F)(F)F)c1ccc(O)cc1 | 113 to 115
Cc1cccc(-c2nc(CCl)no2)c1 | 44 to 46
Cc1ccc(-n2cccc2)cc1 | 82 to 84
CCOc1c(Cl)cc(C(=O)O)cc1OC | 116 to 118
O=C(O)CC(Br)C(=O)c1ccc(Br)cc1 (stereo not drawn) | 109 to 111
NC(=O)c1c(N)sc2c1-c1ccccc1CCC2 | 145 to 147
Cc1ccc(Cl)c2ccc(=O)[nH]c12 | 254 to 256
O=C(CCl)Nc1ccc2[nH]c(=O)[nH]c2c1 | 230 to 232
Nc1ccc(C(=O)OC2CCCC2)cc1 | 55 to 57
O=C(O)Cn1cccnc1=O | 211 to 213
COc1ccc(F)cc1CCl | 52 to 53
O=C(Cc1ccccn1)c1cccnc1 | 66 to 68
CS(=O)(=O)Nc1ccc(N)cc1Cl | 181 to 183
CS(=O)(=O)c1ccccc1F | 49 to 53
CCOc1ccc(N)c(C(N)=O)c1 | 148 to 150
O=C(O)c1c(-n2cccc2)sc2c1CCCC2 | 158 to 162
O=C(O)CSc1nnc(-c2cccs2)n1C1CC1 | 229 to 231
Cc1cc(C(=O)O)c(C)n1Cc1ccco1 | 170 to 172
Cc1ccc(CNC(=O)C(C#N)=CN(C)C)cc1 | 135 to 137
CC1C(=O)Nc2cc(C(=O)O)ccc2N1C (stereo not drawn) | 289 to 291
CN(C)S(=O)(=O)c1ccc2[nH]c(=O)oc2c1 | 202 to 204
CC(C)NS(=O)(=O)c1ccc(/C=C/C(=O)O)cc1 | 223 to 225

Compound | melting point [°C]
O=C(CCl)Nc1ccc(Oc2cccc(Cl)c2)cc1 | 117 to 119
COc1ccc2cc(C#N)ccc2c1 | 105 to 107
Nc1cccnc1-n1cncn1 | 110 to 112
Cc1ccncc1C(=O)O | 199 to 201
Clc1cc(OCc2ccccc2)ccn1 | 93 to 95
COc1ccccc1C(C)=CC(=O)O | 81 to 83
O=C(NCCCl)OCC(F)(F)F | 31 to 33
Nc1nccnc1CO | 115 to 117
Fc1ccc(-c2nnc(CCl)o2)cc1 | 138 to 140
NS(=O)(=O)CCCN1C(=O)c2ccccc2C1=O | 173 to 175
CC(=O)c1ccc2c(c1)C(C)(C)C(=O)N2 | 187 to 189
Nc1ccc2c(c1)CCN2C(=O)c1cccnc1 | 181 to 183
O=c1[nH]c2ccc(I)cc2o1 | 209 to 211
Nc1nnc(NS(=O)(=O)c2ccccc2)[nH]1 | 303 to 305
Nc1ccnn1Cc1ccccn1 | 68 to 70
Nc1ccc(CCC(=O)O)cn1 | 199 to 201
CCOC(=O)c1c(C)n(C2CCCC2)c2ccc(O)cc12 | 228 to 230
Cc1cc(N)ccc1NC(=O)CN1CCCC1=O | 209 to 211
CCCC(=O)Nc1c(Cl)cc(Cl)cc1C(=O)O | 180 to 182
Cc1nncn1C1CC1 | 49 to 51
Nc1cccc(S(=O)(=O)N2CCCCCC2)c1 | 73 to 77
O=C(O)c1[nH]c2ccc(F)cc2c1Cl | 279 to 281
NNC(=O)CC1CCCC1 | 82 to 84

— a melting point compilation (Tetko et al.)
